Test systems include OVCAR-4 ovarian; TK-10 renal; SF-539 CNS; U251 CNS; SK-MEL-5 melanoma; NCI-H23 lung; HOP-62 NSCLC; HT29 colon; SR leukemia; MALME-3M melanoma.
Common to all, as to assay: NCI-60 cell line screen, 48 h

Several values for one entry are separate records, joined by “and”; a condition that tells them apart may be missing. Equal values may be shown once.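 Interpolation was linear, between the two tested concentrations surrounding the appropriate level; five concentrations were tested over 48 hours in 96-well plates. Here, GI50 denotes the concentration required for 50% inhibition of growth. The concentration for full growth arrest is given as TGI.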

Take `COC(=O)c1c2c(c(C)[n+]([O-])c1C)C(=O)C=C(NCc1ccc(F)c(Cl)c1)C2=O`: the GI50 in the assay with OVCAR-4 ovarian is 0.151 µM; with TK-10 renal it was 2.22 µM; with SF-539 CNS it was 0.604 µM; in the assay with U251 CNS it was 0.291 µM; in the assay with SK-MEL-5 melanoma, 0.164 µM; with NCI-H23 lung, 0.412 µM. Also, the GI50 in the assay on HOP-62 NSCLC is 0.718 µM; in the assay with HT29 colon it was 0.243 µM; in the assay on SR leukemia, 0.381 µM; with MALME-3M melanoma it was 0.149 µM. Also, the TGI is 0.603 µM with OVCAR-4 ovarian; 5.49 µM in the assay with TK-10 renal; 1.71 µM in the assay with SF-539 CNS; 1.44 µM in the assay on U251 CNS; 0.311 µM in the assay with SK-MEL-5 melanoma; 2.11 µM with NCI-H23 lung. For the same molecule, the TGI with HOP-62 NSCLC was determined as 2.33 µM; in the assay on HT29 colon, 2.15 µM; with SR leukemia, 6.73 µM; in the assay with MALME-3M melanoma it was 0.332 µM.

With `O=[N+]([O-])c1nccn1CC(O)CN1CC1` (centres undefined), the TGI with OVCAR-4 ovarian, with TK-10 renal, in the assay on SF-539 CNS, with U251 CNS, in the assay with SK-MEL-5 melanoma and in the assay with NCI-H23 lung was greater than 100 µM throughout. Also, the TGI in the assay with HOP-62 NSCLC, in the assay on HT29 colon, in the assay with SR leukemia and in the assay with MALME-3M melanoma was greater than 100 µM throughout.

`COc1ncc(-c2ccc3nccc(-c4ccnnc4)c3c2)cc1NS(=O)(=O)c1ccc(F)cc1F`: the GI50 with OVCAR-4 ovarian was 0.033 µM and 0.0217 µM; in the assay with TK-10 renal it was 0.00325 µM and < 0.01 µM; in the assay with SF-539 CNS, 0.00746 µM and < 0.01 µM; with U251 CNS it was 0.0194 µM and < 0.0147 µM; with SK-MEL-5 melanoma, 0.0237 µM and 0.0154 µM; with NCI-H23 lung, 0.029 µM and 0.0174 µM. The GI50 was 0.00803 µM and < 0.0122 µM in the assay on HOP-62 NSCLC; 0.00325 µM and < 0.01 µM with HT29 colon; 0.0169 µM and 0.0203 µM in the assay with SR leukemia; 0.00473 µM and < 0.01 µM in the assay on MALME-3M melanoma. Besides, the TGI is 0.0831 µM and 0.0719 µM with TK-10 renal; 0.0587 µM and 0.0468 µM in the assay on SF-539 CNS; > 3.43 µM and 0.923 µM with U251 CNS; 0.141 µM and 0.0966 µM with SK-MEL-5 melanoma; > 8.67 µM and 6.46 µM in the assay on NCI-H23 lung; 1.93 µM and 3.02 µM with HOP-62 NSCLC. Besides, the TGI in the assay with HT29 colon was > 10 µM and 4.25 µM; in the assay with SR leukemia, 0.499 µM and 0.345 µM; in the assay with MALME-3M melanoma it was 0.114 µM and 0.0222 µM.

For `COC(=O)C1=C(C(=O)ON)C2C=CC1(C(Cc1ccccc1)Nc1ccccc1)O2` (centres undefined), the GI50 with OVCAR-4 ovarian was 1.66 µM; in the assay with TK-10 renal it was 1.71 µM; in the assay with SF-539 CNS, 11.5 µM; with U251 CNS, 14.2 µM; in the assay with SK-MEL-5 melanoma, 14.1 µM; with NCI-H23 lung it was 12 µM. In addition, the GI50 was 14.4 µM in the assay with HOP-62 NSCLC, 1.79 µM with HT29 colon, 2.67 µM in the assay with SR leukemia and 1.76 µM with MALME-3M melanoma. Also, the TGI is 3.12 µM in the assay on OVCAR-4 ovarian; 3.08 µM in the assay with TK-10 renal; 23.7 µM in the assay with SF-539 CNS; 27.2 µM with U251 CNS; 27.2 µM in the assay with SK-MEL-5 melanoma; 28.1 µM in the assay with NCI-H23 lung. In addition, the TGI in the assay with HOP-62 NSCLC came to 27.9 µM; in the assay on HT29 colon it was 3.42 µM; in the assay with SR leukemia, 43.6 µM; with MALME-3M melanoma it was 3.33 µM.

As to `Oc1cc(O)c2c(-c3c(O)c(-c4ccc(O)c(O)c4)[o+]c4cc(O)cc(O)c34)c(O)c(-c3ccc(O)c(O)c3)[o+]c2c1`, the TGI was greater than 100 µM with OVCAR-4 ovarian; greater than 100 µM with TK-10 renal; 50.3 µM in the assay with SF-539 CNS; greater than 100 µM with U251 CNS; greater than 100 µM in the assay on SK-MEL-5 melanoma; greater than 100 µM with NCI-H23 lung. Also, the TGI in the assay with HOP-62 NSCLC was 97.8 µM; with HT29 colon it was greater than 100 µM; in the assay on SR leukemia it was 74.8 µM; in the assay on MALME-3M melanoma it was 84.6 µM.

With `COc1ccccc1CCN=C1NC(=O)/C(=C/c2ccc3ncccc3c2)S1`, the GI50 in the assay on OVCAR-4 ovarian is 4.27 µM; with TK-10 renal, 4.48 µM; in the assay with SF-539 CNS, 4.48 µM; in the assay on U251 CNS, 4.1 µM; with SK-MEL-5 melanoma it was 5.92 µM; with NCI-H23 lung, 8.56 µM. Further, the GI50 in the assay on HOP-62 NSCLC is 8.17 µM; in the assay with HT29 colon, 2.47 µM; in the assay with SR leukemia, 0.743 µM; with MALME-3M melanoma, 7.44 µM. Also, the TGI is 20.5 µM in the assay on OVCAR-4 ovarian; greater than 21.7 µM in the assay with TK-10 renal; 15.7 µM in the assay with SF-539 CNS; 24.9 µM in the assay with U251 CNS; 17.6 µM in the assay with SK-MEL-5 melanoma; greater than 25 µM with NCI-H23 lung. For the same molecule, the TGI in the assay with HOP-62 NSCLC was greater than 25 µM; in the assay on HT29 colon, 15.7 µM; with SR leukemia it was 3.02 µM; in the assay with MALME-3M melanoma it was greater than 23 µM.

Regarding `COc1cc(C)c(Cl)cc1C1=NN(c2ccc(S(N)(=O)=O)cc2)C(/C=C/c2ccccc2)C1` (centres undefined), the GI50 in the assay with OVCAR-4 ovarian was 2.77 µM; in the assay with TK-10 renal, 3.25 µM; in the assay on SF-539 CNS, 4.26 µM; in the assay with U251 CNS, 3.12 µM; in the assay on SK-MEL-5 melanoma it was 1.61 µM; with NCI-H23 lung it was 2.02 µM. Moreover, the GI50 in the assay on HOP-62 NSCLC was 3.1 µM; in the assay on HT29 colon, 1.8 µM; in the assay on SR leukemia, 3.06 µM; with MALME-3M melanoma, 2.68 µM. Moreover, the TGI is 24.9 µM with OVCAR-4 ovarian; 11.5 µM in the assay on TK-10 renal; 17 µM with SF-539 CNS; 11.3 µM with U251 CNS; 3 µM in the assay on SK-MEL-5 melanoma; 7.73 µM with NCI-H23 lung. The TGI in the assay with HOP-62 NSCLC stood at 11.8 µM; with HT29 colon, 4.07 µM; with SR leukemia it was 8.91 µM; in the assay on MALME-3M melanoma, 9.98 µM.

In the case of `CCC1(c2c(F)c(F)c(N)c(F)c2F)CCC(=O)NC1=O` (centres undefined), the TGI in the assay on OVCAR-4 ovarian, in the assay with TK-10 renal, with SF-539 CNS, with U251 CNS, in the assay on SK-MEL-5 melanoma and with NCI-H23 lung was greater than 100 µM in each case. The TGI in the assay with HOP-62 NSCLC, in the assay with HT29 colon, in the assay on SR leukemia and in the assay on MALME-3M melanoma was greater than 100 µM each time.

The values above are taken from PubChem BioAssay (NCI).
